Consider 10 compounds from US6486185B1, “3-heteroarylidene-2-indolinone protein kinase inhibitors” (Sugen, Inc., priority 1997, dated 2002).

In the test the target is T1, EGFR (Homo sapiens, UniProt P00533).
T1 construct: expressed in transfected cells; host or cells: NIH 3T3/C7
T1 sequence (P00533 25-1210): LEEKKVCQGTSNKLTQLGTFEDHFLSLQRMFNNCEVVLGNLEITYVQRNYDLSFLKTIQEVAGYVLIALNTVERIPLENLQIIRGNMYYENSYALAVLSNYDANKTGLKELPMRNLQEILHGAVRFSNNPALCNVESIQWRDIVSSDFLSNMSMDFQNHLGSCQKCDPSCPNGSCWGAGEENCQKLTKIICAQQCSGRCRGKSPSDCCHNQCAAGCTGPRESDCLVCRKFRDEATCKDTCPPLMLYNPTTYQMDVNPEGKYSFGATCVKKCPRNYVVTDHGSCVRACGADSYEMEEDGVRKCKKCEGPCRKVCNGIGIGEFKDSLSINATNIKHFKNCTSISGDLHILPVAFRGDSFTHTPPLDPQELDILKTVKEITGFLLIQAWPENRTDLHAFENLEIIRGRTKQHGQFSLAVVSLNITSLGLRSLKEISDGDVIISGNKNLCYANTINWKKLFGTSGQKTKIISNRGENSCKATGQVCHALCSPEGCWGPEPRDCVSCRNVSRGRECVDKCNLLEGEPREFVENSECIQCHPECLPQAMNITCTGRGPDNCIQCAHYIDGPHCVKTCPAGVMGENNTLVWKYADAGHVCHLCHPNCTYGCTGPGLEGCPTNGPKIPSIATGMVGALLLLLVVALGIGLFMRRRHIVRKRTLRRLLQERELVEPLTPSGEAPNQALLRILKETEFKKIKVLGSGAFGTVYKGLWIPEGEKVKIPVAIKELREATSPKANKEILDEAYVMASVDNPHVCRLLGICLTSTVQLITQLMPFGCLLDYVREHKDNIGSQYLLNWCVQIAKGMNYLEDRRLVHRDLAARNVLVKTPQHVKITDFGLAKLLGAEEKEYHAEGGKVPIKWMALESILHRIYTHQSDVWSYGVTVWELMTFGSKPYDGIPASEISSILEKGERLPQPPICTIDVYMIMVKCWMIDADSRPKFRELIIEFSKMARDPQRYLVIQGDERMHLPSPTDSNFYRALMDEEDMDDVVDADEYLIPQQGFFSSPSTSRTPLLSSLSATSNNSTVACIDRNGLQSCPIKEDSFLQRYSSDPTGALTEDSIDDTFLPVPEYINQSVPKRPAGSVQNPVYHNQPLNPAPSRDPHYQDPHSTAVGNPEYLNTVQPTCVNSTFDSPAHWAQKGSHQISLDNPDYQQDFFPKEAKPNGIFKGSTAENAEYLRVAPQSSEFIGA
The test can be described thus: EGF receptor ELISA in cells engineered to express human EGF-R. The test is classed as cell-based. Conditions: 50% inhibition of PTK activity over control. The method, then:
The cellular/catalytic assays described herein are performed in an ELISA format. The general procedure is a follows: a compound is introduced to cells expressing the test kinase, either naturally or recombinantly, for some period of time after which, if the test kinase is a receptor, a ligand known to activate the receptor's activity is added. The cells are lysed and the lysate is transferred to the wells of an ELISA plate previously coated with a specific antibody recognizing the substrate of the enzymatic phosphorylation reaction. Non-substrate components of the cell lysate are washed away and the amount of phosphorylation on the substrate is detected with an antibody specifically recognizing phosphotyrosine compared with control cells that were not contacted with a test compound.
EGF Receptor kinase activity in cells genetically engineered to express human EGF-R can be measured as described below:
The following materials and reagents are used
a. EGF Ligand: stock concentration=16.5 μM; EGF 201, TOYOBO, Co., Ltd. Japan.
b. 05-101 (UBI) (a monoclonal antibody recognizing an EGFR extracellular domain).
c. Anti-phosphotyosine antibody (anti-Ptyr) (polyclonal).
d. Detection antibody: Goat anti-rabbit lgG horse radish peroxidase conjugate, TAGO, Inc., Burlingame, Calif.
Keep solution in dark at 4 C until used.
The following protocol is used:
1. Coat ELISA plates (Corning, 96 well, Cat. #25805-96) with 05-101 antibody at 0.5 μg per well in PBS, 150 μL final volume/well, and store overnight at 4° C. Coated plates are good for up to 10 days when stored at 4° C.
2. On day of use, remove coating buffer and replace with blocking buffer (5% Carnation Instant NonFat Dry Milk in PBS). Incubate the plate, shaking, at room temperature (about 23° C. to 25° C.) for 30 minutes. Just prior to use, remove blocking buffer and wash plate 4 times with TBST buffer.
1. NIH 3T3/C7 cell line (Honegger, et al., Cell 51:199-209, 1987) can be use for this assay.
2. Choose dishes having 80-90% confluence for the experiment. Trypsinize cells and stop reaction by adding 10% CS DMEM medium. Suspend cells in DMEM medium (10% CS DMEM medium) and centrifuge once at 1000 rpm at room temperature for 5 minutes.
3. Resuspend cells in seeding medium (DMEM, 0.5% bovine serum), and count the cells using trypan blue. Viability above 90% is acceptable. Seed cells in DMEM medium (0.5% bovine serum) at a density of 10,000 cells per well, 100 μL per well, in a 96 well microtiter plate. Incubate seeded cells in 5% CO2 at 37° C. for about 40 hours.
1. Check seeded cells for contamination using an inverted microscope. Dilute drug stock (10 mg/mL in DMSO) 1:10 in DMEM medium, then transfer 5 μL to a test well for a final drug dilution of 1:200 and a final DMSO concentration of 1%. Control wells receive DMSO alone. Incubate in 5% CO2 at 37° C. for one hour.
2. Prepare EGF ligand: dilute stock EGF in DMEM so that upon transfer of 10 μL dilute EGF (1:12 dilution), 25 nM final concentration is attained.
3. Prepare fresh 10 mL HNTG* sufficient for 100 μL per well wherein HNTG* comprises: HNTG stock (2.0 mL), milli-Q H2O (7.3 mL), EDTA, 100 mM, pH 7.0 (0.5 mL), Na3VO4 0.5 M (0.1 mL) and Na4(P2O7), 0.2 M (0.1 mL).
5. After two hours incubation with drug, add prepared EGF ligand to cells, 10 μL per well, to yield a final concentration of 25 nM. Control wells receive DMEM alone. Incubate, shaking, at room temperature, for 5 minutes.
6. Remove drug, EGF, and DMEM. Wash cells twice with PBS. Transfer HNTG* to cells, 100 μL per well. Place on ice for 5 minutes. Meanwhile, remove blocking buffer from other ELISA plate and wash with TBST as described above.
7. With a pipette tip securely fitted to a micropipettor, scrape cells from plate and homogenize cell material by repeatedly aspirating and dispensing the HNTG* lysis buffer. Transfer lysate to a coated, blocked, and washed ELISA plate. Incubate shaking at room temperature for one hour.
8. Remove lysate and wash 4 times with TBST. […]
(An ELISA detects its analyte on a solid surface through an enzyme-linked reagent.)
As a reminder, the IC50 is the concentration needed to halve the response being measured. Read a high IC50 as weaker potency. For the compound `CCOC(=O)c1c(C)[nH]c(C=C2C(=O)Nc3ccc(NC(=O)c4ccc(C(=O)OC)cc4)cc32)c1C` [3-(2,4-dimethyl-3-ethoxycarbonylpyrrol-5-methylidenyl)-5-(4-methoxycarbonylbenzamido)-2-indolinone], the IC50 is over 10 µM.
Take `CCOC(=O)c1c(C)[nH]c(C=C2C(=O)Nc3ccc(Br)cc32)c1C` [3-(2,4-dimethyl-3-ethoxycarbonylpyrrol-5-methylidenyl)-5-bromo-2-indolinone]: the IC50 was over 25 µM.
The result for `CC(=O)c1[nH]c(C=C2C(=O)Nc3ccccc32)c(C)c1C` [3-(2-acetyl-3,4-dimethylpyrrol-5-methylidenyl)-2-indolinone] reads over 100 µM; that for `COC(=O)Cc1c(Cl)[nH]c(C=C2C(=O)Nc3ccccc32)c1C(=O)OC` [3-(2-chloro-4-methoxycarbonyl-3-methoxycarbonylmethylpyrrol-5-methylidenyl)-2-indolinone], over 50 µM; that for `CCOC(=O)c1[nH]c(C=C2C(=O)Nc3ccccc32)c(C(C)=O)c1C` [3-(4-acetyl-2-ethoxycarbonyl-3-methylpyrrol-5-methylidenyl)-2-indolinone], over 10 µM.
As for `CCOC(=O)c1c[nH]c(C=C2C(=O)Nc3ccccc32)c1C` [3-(4-ethoxycarbonyl-3-methylpyrrol-2-methylidenyl)-2-indolinone], the figure is over 100 µM; as for `CCOC(=O)CCc1c(C(=O)OCC)[nH]c(C=C2C(=O)Nc3ccccc32)c1CC(=O)OCC` [3-[2-ethoxycarbonyl-3-(2-ethoxycarbonylethyl)-4-ethoxycarbonylmethyl)pyrrol-5-methylidenyl)-2-indolinone], over 10 µM; as for `Cc1c[nH]c(C=C2C(=O)Nc3ccccc32)c1CCC(=O)O` [3-[3-(2-carboxyethyl-4-methylpyrrol-2-methylidenyl]-2-indolinone], over 100 µM.
The result for `COC(=O)CCc1c[nH]c(C=C2C(=O)Nc3cc(OC)c(OC)cc32)c1C` [3-[4-(2-methoxycarbonylethyl)-3-methylpyrrol-2-methylidenyl]-5,6-dimethoxy-2-indolinone] reads over 50 µM; that for `COC(=O)CCc1c[nH]c(C=C2C(=O)Nc3ccccc32)c1C` [3-[4-(2-methoxycarbonylethyl-3-methylpyrrol-2-methylidenyl]-2-indolinone], over 100 µM.
